From US10077243B2, “Compounds for treating disorders mediated by metabotropic glutamate receptor 5, and methods of use thereof” (Sunovion Pharmaceuticals Inc., priority 2009, dated 2018) come the findings set out here.

A word on the EC50: it is the concentration at which the effect is half-maximal.

The target in this test is T1, human mGluR5 (Homo sapiens, UniProt P41594).
T1 construct: expressed in transfected cells; host or cells: HEK293 cells stably expressing rat GLAST (EAAT1), stably transfected with pcDNAzeo3.1 carrying synthetic human mGluR5 DNA; zeocin-selected single clones
T1 sequence (P41594 21-1212): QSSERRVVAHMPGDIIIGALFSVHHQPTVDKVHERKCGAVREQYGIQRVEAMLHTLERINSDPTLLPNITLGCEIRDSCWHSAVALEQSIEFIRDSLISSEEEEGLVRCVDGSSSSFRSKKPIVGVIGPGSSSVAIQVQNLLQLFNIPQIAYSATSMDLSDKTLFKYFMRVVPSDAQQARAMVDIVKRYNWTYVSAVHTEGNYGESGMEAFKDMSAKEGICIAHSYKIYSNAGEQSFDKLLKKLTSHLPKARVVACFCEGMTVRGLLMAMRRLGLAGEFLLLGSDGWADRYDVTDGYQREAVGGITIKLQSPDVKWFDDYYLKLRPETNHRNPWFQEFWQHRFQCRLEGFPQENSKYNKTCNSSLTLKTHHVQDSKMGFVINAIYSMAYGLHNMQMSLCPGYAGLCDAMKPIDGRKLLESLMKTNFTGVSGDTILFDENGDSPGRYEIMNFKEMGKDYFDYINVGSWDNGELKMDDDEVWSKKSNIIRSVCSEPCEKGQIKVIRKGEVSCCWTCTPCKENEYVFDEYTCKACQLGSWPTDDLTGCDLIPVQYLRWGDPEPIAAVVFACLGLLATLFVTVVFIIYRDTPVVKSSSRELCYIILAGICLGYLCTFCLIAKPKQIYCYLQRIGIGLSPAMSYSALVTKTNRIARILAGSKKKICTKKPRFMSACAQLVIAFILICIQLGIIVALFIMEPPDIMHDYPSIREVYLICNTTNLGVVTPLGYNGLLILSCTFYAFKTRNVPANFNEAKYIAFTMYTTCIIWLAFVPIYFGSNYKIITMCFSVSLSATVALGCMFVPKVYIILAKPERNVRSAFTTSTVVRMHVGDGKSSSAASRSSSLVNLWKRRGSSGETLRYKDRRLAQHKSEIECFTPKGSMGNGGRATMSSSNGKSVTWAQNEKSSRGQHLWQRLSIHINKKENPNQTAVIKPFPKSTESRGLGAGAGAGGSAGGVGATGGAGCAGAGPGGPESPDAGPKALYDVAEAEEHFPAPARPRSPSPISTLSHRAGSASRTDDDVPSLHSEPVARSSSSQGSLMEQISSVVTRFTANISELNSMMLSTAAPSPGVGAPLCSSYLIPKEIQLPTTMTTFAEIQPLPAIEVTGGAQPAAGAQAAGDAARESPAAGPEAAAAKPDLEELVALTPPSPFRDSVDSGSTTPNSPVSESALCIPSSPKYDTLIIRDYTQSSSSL
The test can be described thus: In vitro cell-based FLIPR calcium assay for positive modulation of the activation of mGluR5 by glutamate (PAM EC50). Conditions: HEK293/GLAST cells expressing recombinant human mGluR5; FLIPR calcium signal; glutamate added at its EC20; read-out: mGluR5 PAM EC50. In a few lines: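 PAM activity was measured as FLIPR calcium fluorescence in the presence of an EC20 glutamate concentration determined daily from a glutamate concentration-response curve. Cells were HEK293/GLAST clones expressing mGluR5, dye-loaded at 25 °C for 45–60 min in HEPES-buffered HBSS; vehicle control was 0.3% DMSO.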
Regarding `CC1(C)CCc2nc3cc(C#Cc4ccccn4)cnc3c(=O)n2C1` [Example 11.5, 8,8-dimethyl-3-(pyridin-2-ylethynyl)-8,9-dihydro-6H-dipyrido[1,2-a:3′,2′-d]pyrimidin-11(7H)-one], the 50% effective concentration (EC50) is 100 to 300 nM.

`CCCCN1CCn2c(nc3cc(C#Cc4cccc(F)c4)ccc3c2=O)C1` [Example 5.11, 2-butyl-9-((3-fluorophenyl)ethynyl)-3,4-dihydro-1H-pyrazino[2,1-b]quinazolin-6(2H)-one]: the EC50 was 100 to 300 nM.

Turning to `O=c1c2c(nc3cc(C#Cc4cccnc4)ccn13)CCCCC2` [Example 16.4, 3-(pyridin-3-ylethynyl)-7,8,9,10-tetrahydrocyclohepta[d]pyrido[1,2-a]pyrimidin-11(6H)-one], the EC50 was less than 10 nM.

Regarding `CC1CCc2nc3cc(C#Cc4ccccn4)ccn3c(=O)c2CC1` (stereo not shown) [Example 16.6, 8-methyl-3-(pyridin-2-ylethynyl)-7,8,9,10-tetrahydrocyclohepta[d]pyrido[1,2-a]pyrimidin-11(6H)-one], the half-maximal effective concentration (EC50) is less than 10 nM.

Take `O=C(Nc1ccc(F)cc1)c1ccn2c(=O)c3c(nc2c1)CCCCCC3` [Example 28.2, N-(4-fluorophenyl)-12-oxo-7,8,9,10,11,12-hexahydro-6H-cycloocta[d]pyrido[1,2-a]pyrimidine-3-carboxamide]: the half-maximal effective concentration (EC50) is 300 to 1000 nM.

In the case of `COCC1CCc2nc3cc(C#Cc4ccccn4)ccc3c(=O)n2C1` (stereo not shown) [Example 4.34, 8-(methoxymethyl)-3-(pyridin-2-ylethynyl)-8,9-dihydro-6H-pyrido[2,1-b]quinazolin-11(7H)-one], the concentration giving a half-maximal response (EC50) was in the range of 10 to 30 nM.

As for `O=c1c2ccc(C#Cc3ccccn3)cc2nc2n1CC1CCCN1CC2` (single isomer, unassigned) [Example 9.4a/9.4b slower moving enantiomer (fraction 2), 9-(pyridin-2-ylethynyl)-2,3,5,6,14,14a-hexahydropyrrolo[2′,1′:3,4][1,4]diazepino[7,1-b]quinazolin-12(1H)-one], the EC50 was 100 to 300 nM.

On to `O=c1c2ccc(C#Cc3ccccn3)cc2nc2n1CC1CCCCN1C2` (stereo not shown) [Example 5.20, 3-(pyridin-2-ylethynyl)-8,9,10,11,11a,12-hexahydropyrido[1′,2′:4,5]pyrazino[2,1-b]quinazolin-14(6H)-one], for which the EC50 is 300 to 1000 nM.

As to `Cc1cccc(C#Cc2ccc3c(=O)n4c(nc3c2)CCC2(CC4)OCCO2)n1` [Example 7.46], the EC50 is 100 to 300 nM.

In the case of `CN1CCCn2c(nc3cc(C#Cc4cccc(F)c4)ccc3c2=O)CC1` [Example 10.3, 11-((3-fluorophenyl)ethynyl)-3-methyl-3,4,5,6-tetrahydro-1H-[1,5]diazocino[2,1-b]quinazolin-8(2H)-one], the EC50 is 10 to 30 nM.

Consider `CC1(C)Cc2nc3cc(C#Cc4ccccn4)cnc3c(=O)n2C1` [Example 11.10, 7,7-dimethyl-3-(pyridin-2-ylethynyl)-7,8-dihydropyrido[3,2-d]pyrrolo[1,2-a]pyrimidin-10(6H)-one], for which the EC50 fell in the range of 30 to 100 nM.

Consider `CC1CCCCn2c1nc1cc(C#Cc3ccccn3)ccc1c2=O` (stereo not shown) [Example 6.35, 6-methyl-3-(pyridin-2-ylethynyl)-7,8,9,10-tetrahydroazepino[2,1-b]quinazolin-12(6H)-one], for which the EC50 is 10 to 30 nM.

Consider `O=c1c2ccc(C#Cc3ccc(F)cc3)cc2nc2n1CCOC2` [Example 4.2, 9-((4-fluorophenyl)ethynyl)-3,4-dihydro-[1,4]oxazino[3,4-b]quinazolin-6(1H)-one], for which the 50% effective concentration (EC50) fell in the range of 30 to 100 nM.

Consider `O=c1c2ccc(C#Cc3cccnc3)cc2nc2n1CCC(O)CC2` (stereo not shown) [Example 6.17, 8-hydroxy-3-(pyridin-3-ylethynyl)-7,8,9,10-tetrahydroazepino[2,1-b]quinazolin-12(6H)-one], for which the EC50 was 100 to 300 nM.

Regarding `O=c1c2ccc(C#Cc3cccc(F)c3)cc2nc2n1CCNCC2` [Example 8.6, 8-((3-fluorophenyl)ethynyl)-2,3,4,5-tetrahydro-[1,4]diazepino[7,1-b]quinazolin-11(1H)-one], the EC50 was in the range of 100 to 300 nM.

As to `COCc1cnc2cc(C#Cc3cccc(F)c3)ccn2c1=O` [Example 13.7, 8-((3-fluorophenyl)ethynyl)-3-(methoxymethyl)-4H-pyrido[1,2-a]pyrimidin-4-one], the EC50 lay in the range of 30 to 100 nM.

Consider `COC(C)c1nc2cc(C#Cc3cccc(F)c3)ccc2c(=O)n1C` (stereo not shown) [Example 2.11, 7-((3-fluorophenyl)ethynyl)-2-(1-methoxyethyl)-3-methylquinazolin-4(3H)-one], for which the EC50 is less than 10 nM.

`CCCn1ccc2cc(C#Cc3ccc(F)cc3)ccc2c1=O` [Example 18.2, 6-((4-fluorophenyl)ethynyl)-2-propylisoquinolin-1 (2H)-one]: the half-maximal effective concentration (EC50) was 300 to 1000 nM.

Consider `CC1CCCn2c(nc3cc(C#Cc4ccccn4)ccc3c2=O)C1` (stereo not shown) [Example 6.36, 7-methyl-3-(pyridin-2-ylethynyl)-7,8,9,10-tetrahydroazepino[2,1-b]quinazolin-12(6H)-one], for which the EC50 lay within 10 to 30 nM.

`O=c1c2ccc(C#Cc3ccccn3)cc2nc2n1CC(O)CC2` (stereo not shown) [Example 4.24, 8-hydroxy-3-(pyridin-2-ylethynyl)-8,9-dihydro-6H-pyrido[2,1-b]quinazolin-11(7H)-one]: the EC50 lay within 300 to 1000 nM.

Regarding `Cc1cnc(C#Cc2ccc3c(=O)n4c(nc3c2)CCC(C)CC4)s1` (stereo not shown) [Example 6.8, 8-methyl-3-((5-methylthiazol-2-yl)ethynyl)-7,8,9,10-tetrahydroazepino[2,1-b]quinazolin-12(6H)-one], the concentration for a half-maximal effect (EC50) was 10 to 30 nM.

`O=c1c2ccc(C#Cc3ccc(F)cc3)cc2ncn1CC1CCCO1` (single isomer, unassigned) [1.15/1.16 slower moving enantiomer (fraction 2), 7-((4-fluorophenyl)ethynyl)-3-((tetrahydrofuran-2-yl)methyl)quinazolin-4(3H)-one]: the EC50 fell in the range of 100 to 300 nM.

As to `O=c1c2ccc(C#Cc3ccc(F)cc3)cc2ncn1C1CCCC1` [Example 1.10, 3-cyclopentyl-7-((4-fluorophenyl)ethynyl)quinazolin-4(3H)-one], the half-maximal effective concentration (EC50) is 30 to 100 nM.

Turning to `COCC1CCc2nc3cc(C#Cc4ccccn4)ccc3c(=O)n2C1` (single isomer, unassigned) [4.34a/4.34b faster moving enantiomer (fraction 1), 8-(methoxymethyl)-3-(pyridin-2-ylethynyl)-8,9-dihydro-6H-pyrido[2,1-b]quinazolin-11(7H)-one], the concentration for a half-maximal effect (EC50) lay within 30 to 100 nM.

With `O=c1c2ccc(C#Cc3ccncc3)cc2nc2n1CCC1(CC2)OCCO1` [Example 7.12], the EC50 was 10 to 30 nM.

In the case of `CC12CCCN1Cc1nc3cc(C#Cc4ccccn4)ccc3c(=O)n1C2` (stereo not shown) [Example 4.49, 13a-methyl-8-(pyridin-2-ylethynyl)-2,3,13,13a-tetrahydro-1H-pyrrolo[1′,2′:4,5]pyrazino[2,1-b]quinazolin-11 (5H)-one], the concentration giving a half-maximal response (EC50) lay in the range of 30 to 100 nM.

With `COCC1CCc2nc3cc(C#Cc4cccc(F)c4)ccc3c(=O)n2CC1` (stereo not shown) [Example 6.24, 3-((3-fluorophenyl)ethynyl)-8-(methoxymethyl)-7,8,9,10-tetrahydroazepino[2,1-b]quinazolin-12(6H)-one], the concentration giving a half-maximal response (EC50) lay within 10 to 30 nM.

As for `O=c1c2ccc(C#Cc3cccc(F)c3)cc2nc2n1CCC(O)CC2` (stereo not shown) [Example 6.15, 3-((3-fluorophenyl)ethynyl)-8-hydroxy-7,8,9,10-tetrahydroazepino[2,1-b]quinazolin-12(6H)-one], the EC50 was less than 10 nM.

In the case of `CC1(C)CCc2nc3cc(C#Cc4cccc(F)c4)ccc3c(=O)n2C1` [Example 4.14, 3-((3-fluorophenyl)ethynyl)-8,8-dimethyl-8,9-dihydro-6H-pyrido[2,1-b]quinazolin-11(7H)-one], the EC50 is less than 10 nM.

Turning to `CC1Cc2nc3cc(C#Cc4ccccn4)ccc3c(=O)n2C1` (single isomer, unassigned) [3.12/3.13 faster moving enantiomer (fraction 1), 2-methyl-6-(pyridin-2-ylethynyl)-2,3-dihydropyrrolo[2,1-b]quinazolin-9(1H)-one], the concentration for a half-maximal effect (EC50) lay within 30 to 100 nM.

`O=c1c2ccc(C#Cc3ccccn3)cc2nc2n1CCCCC2` [Example 6.5, 3-(pyridin-2-ylethynyl)-7,8,9,10-tetrahydroazepino[2,1-b]quinazolin-12(6H)-one]: the half-maximal effective concentration (EC50) was less than 10 nM.

Turning to `O=c1c2c(nc3cc(C#Cc4ccncc4)ccn13)CCCCCC2` [Example 17.4, 3-(pyridin-4-ylethynyl)-8,9,10,11-tetrahydro-6H-cycloocta[d]pyrido[1,2-a]pyrimidin-12(7H)-one], the concentration for a half-maximal effect (EC50) was less than 10 nM.

As to `COC1(C)CCc2nc3cc(C#Cc4ccccn4)ccc3c(=O)n2CC1` (single isomer, unassigned) [Example 6.50a/6.50b slower moving enantiomer (fraction 2), 8-methoxy-8-methyl-3-(pyridin-2-ylethynyl)-7,8,9,10-tetrahydroazepino[2,1-b]quinazolin-12(6H)-one], the EC50 was in the range of 10 to 30 nM.

With `CC1(C)CCc2nc3nc(C#Cc4ccccn4)ccc3c(=O)n2C1` [Example 12.3, 8,8-dimethyl-2-(pyridin-2-ylethynyl)-7,8,9,10-tetrahydro-5H-dipyrido[1,2-a:2′,3′-d]pyrimidin-5-one], the EC50 was 30 to 100 nM.

In the case of `CCOCCc1cnc2cc(C#Cc3cccc(F)c3)ccn2c1=O` [Example 13.13, 3-(2-ethoxyethyl)-8-((3-fluorophenyl)ethynyl)-4H-pyrido[1,2-a]pyrimidin-4-one], the 50% effective concentration (EC50) is 30 to 100 nM.

On to `CN1CCCc2nc3cc(C#Cc4ccc(F)cc4)ccc3c(=O)n2CC1` [Example 10.2, 9-((4-fluorophenyl)ethynyl)-3-methyl-3,4,5,6-tetrahydro-1H-[1,4]diazocino[8,1-b]quinazolin-12(2H)-one], for which the concentration giving a half-maximal response (EC50) fell in the range of 30 to 100 nM.

On to `O=c1c2ccc(C#Cc3cccc(F)c3)cc2nc2n1CC1CCCN1C2` (stereo not shown) [Example 5.21, 8-((3-fluorophenyl)ethynyl)-2,3,13,13a-tetrahydro-1H-pyrrolo[1′,2′:4,5]pyrazino[2,1-b]quinazolin-11(5H)-one], for which the EC50 was less than 10 nM.
